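Five compound concentrations were applied to cells in 96-well plates for 48 hours; endpoints were derived by simple linear interpolation of the resulting dose-response curve. GI50: concentration for 50% inhibition of growth.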 Activity calls are given as the source filed them. Cut-off read from the data, not from the text of the source: active = GI50 up to about 1.1 µM and inactive = higher.
Assays:
Test in all cases: DTP human tumour cell line panel, 48 h
CAKI-1 = test system: CAKI-1
Malme-3M = test system: Malme-3M
UACC-257 = test system: UACC-257
UO-31 = test system: UO-31
OVCAR-4 = test system: OVCAR-4
RXF 393 = test system: RXF 393
NCI-H226 = test system: NCI-H226
IGROV-1 = test system: IGROV-1
HCC 2998 = test system: HCC 2998
SF-268 = test system: SF-268
LOX IMVI = test system: LOX IMVI
U-251 = test system: U-251
NCI-H522 = test system: NCI-H522
HOP-92 = test system: HOP-92
SNB-19 = test system: SNB-19
SK-MEL-5 = test system: SK-MEL-5
SF-295 = test system: SF-295
COLO 205 = test system: COLO 205
CCRF-CEM = test system: CCRF-CEM
SF-539 = test system: SF-539

Measured: GI50

CCOC(=O)CCN1C(=O)c2c(NC(=O)C(=O)O)cccc2S1(=O)=O
inactive: CAKI-1 > 100 µM | Malme-3M > 100 µM | UACC-257 > 100 µM | UO-31 > 100 µM | OVCAR-4 > 100 µM | RXF 393 > 100 µM | NCI-H226 > 100 µM | IGROV-1 > 100 µM | HCC 2998 > 100 µM | SF-268 > 100 µM | LOX IMVI > 100 µM | U-251 > 100 µM | NCI-H522 > 100 µM | HOP-92 > 100 µM | SNB-19 > 100 µM | SK-MEL-5 > 10 µM | SF-295 > 100 µM | COLO 205 > 100 µM | CCRF-CEM > 100 µM

C=C1C(=O)OC2C[C@@]3(C)CCCC(=C)C3CC12 (stereo not given in full)
inactive: CAKI-1 6.62 µM | SF-539 1.95 µM | Malme-3M 3.52 µM | UACC-257 10.3 µM | UO-31 4.98 µM | OVCAR-4 13.4 µM | RXF 393 2.77 µM | NCI-H226 12.9 µM | IGROV-1 19 µM | HCC 2998 13.6 µM | SF-268 12.9 µM | LOX IMVI 1.22 µM | U-251 10.1 µM | NCI-H522 1.9 µM | HOP-92 4.26 µM | SNB-19 11.2 µM | SK-MEL-5 7.64 µM | SF-295 11.4 µM | COLO 205 2.93 µM | CCRF-CEM > 100 µM

CC1C2CC=CC(=O)[C@@]2(C)CCC12OCCO2 (stereo not given in full)
inactive: CAKI-1 > 100 µM | SF-539 > 100 µM | Malme-3M 17.5 µM | UACC-257 > 100 µM | UO-31 > 100 µM | OVCAR-4 > 100 µM | RXF 393 > 100 µM | NCI-H226 > 100 µM | IGROV-1 > 100 µM | HCC 2998 > 100 µM | SF-268 > 100 µM | U-251 > 100 µM | NCI-H522 > 100 µM | HOP-92 > 100 µM | SNB-19 > 100 µM | SK-MEL-5 24.6 µM | SF-295 > 100 µM | CCRF-CEM > 100 µM

Cc1ccc(Nc2nc3ccccc3c(=O)n2N)cc1
inactive: CAKI-1 > 100 µM | SF-539 > 100 µM | Malme-3M > 100 µM | UACC-257 > 100 µM | UO-31 > 100 µM | OVCAR-4 > 100 µM | RXF 393 > 100 µM | NCI-H226 > 100 µM | IGROV-1 88.3 µM | HCC 2998 > 100 µM | SF-268 > 100 µM | LOX IMVI > 100 µM | U-251 > 100 µM | NCI-H522 > 100 µM | HOP-92 > 100 µM | SNB-19 > 100 µM | SK-MEL-5 > 100 µM | SF-295 > 100 µM | COLO 205 > 100 µM | CCRF-CEM > 100 µM

O=C(CCN1CCOCC1)/C(=C/c1ccccc1)c1ccccc1
inactive: CAKI-1 5.14 µM | SF-539 2.92 µM | Malme-3M 2.24 µM | UACC-257 2.74 µM | UO-31 14 µM | OVCAR-4 10.3 µM | RXF 393 1.57 µM | NCI-H226 7.55 µM | IGROV-1 9.93 µM | HCC 2998 15 µM | SF-268 7.11 µM | LOX IMVI 2.61 µM | U-251 3.99 µM | NCI-H522 1.77 µM | HOP-92 3.5 µM | SNB-19 11 µM | SK-MEL-5 8.45 µM | SF-295 12.3 µM | COLO 205 3.89 µM | CCRF-CEM 1.98 µM

CC1C(=O)C(C)C(c2ccco2)N(N=O)C1c1ccco1 (stereo not given)
inactive: CAKI-1 > 100 µM | SF-539 > 100 µM | Malme-3M > 100 µM | UACC-257 > 100 µM | UO-31 > 100 µM | OVCAR-4 > 100 µM | RXF 393 > 100 µM | NCI-H226 > 100 µM | IGROV-1 > 100 µM | HCC 2998 > 100 µM | SF-268 > 100 µM | LOX IMVI > 100 µM | U-251 > 100 µM | NCI-H522 > 100 µM | HOP-92 > 68.4 µM | SNB-19 > 84.1 µM | SK-MEL-5 > 100 µM | SF-295 > 100 µM | COLO 205 > 100 µM | CCRF-CEM > 100 µM

CC1=C2C(O)C(C(C)C(=O)N(C)C)CCC2(C)C=CC1=O (stereo not given)
inactive: CAKI-1 > 100 µM | SF-539 > 100 µM | UACC-257 > 100 µM | UO-31 > 100 µM | OVCAR-4 > 100 µM | RXF 393 > 100 µM | NCI-H226 > 100 µM | IGROV-1 > 100 µM | HCC 2998 > 100 µM | SF-268 > 100 µM | LOX IMVI > 100 µM | U-251 > 100 µM | NCI-H522 > 100 µM | HOP-92 > 100 µM | SNB-19 > 100 µM | SK-MEL-5 > 100 µM | SF-295 > 100 µM | COLO 205 > 100 µM | CCRF-CEM > 100 µM

OC(c1cc2ccccc2[nH]1)C(O)(c1cc2ccccc2[nH]1)c1cc2ccccc2[nH]1 (stereo not given)
inactive: CAKI-1 19.9 µM | SF-539 41.4 µM | Malme-3M 28.4 µM | UACC-257 16.3 µM | RXF 393 7.18 µM | NCI-H226 11.8 µM | IGROV-1 8.81 µM | HCC 2998 8.09 µM | SF-268 15.6 µM | LOX IMVI 10.8 µM | U-251 25.8 µM | NCI-H522 8.61 µM | HOP-92 14.9 µM | SNB-19 27.2 µM | SK-MEL-5 11.6 µM | SF-295 7.23 µM | COLO 205 4.44 µM | CCRF-CEM 12.3 µM

O=c1c2cc(O)c(O)cc2oc2cc(O)c(C3OC(CO)C(O)C(O)C3O)c(O)c12 (stereo not given)
inactive: CAKI-1 > 100 µM | SF-539 > 100 µM | Malme-3M > 100 µM | UACC-257 > 100 µM | UO-31 > 100 µM | OVCAR-4 > 100 µM | RXF 393 > 100 µM | NCI-H226 > 100 µM | IGROV-1 > 100 µM | HCC 2998 > 100 µM | SF-268 > 100 µM | LOX IMVI > 100 µM | U-251 > 100 µM | NCI-H522 > 100 µM | HOP-92 > 100 µM | SNB-19 > 100 µM | SK-MEL-5 > 100 µM | SF-295 > 100 µM | COLO 205 > 100 µM | CCRF-CEM > 100 µM

O=C(Nc1ccccc1C(=O)NCCCO)/C(=C/c1ccccc1O)NC(=O)c1ccccc1
inactive: CAKI-1 > 100 µM | SF-539 30.8 µM | Malme-3M 95.3 µM | UACC-257 > 100 µM | UO-31 20.7 µM | OVCAR-4 56.8 µM | RXF 393 28.1 µM | NCI-H226 39.3 µM | IGROV-1 36.6 µM | HCC 2998 > 100 µM | SF-268 35.6 µM | LOX IMVI 21.5 µM | U-251 30 µM | NCI-H522 25.2 µM | HOP-92 53.3 µM | SNB-19 16.9 µM | SK-MEL-5 > 100 µM | SF-295 34.4 µM | COLO 205 > 100 µM | CCRF-CEM > 100 µM

Cc1nc(O)nc(O)c1/C=C/C(=O)O
inactive: CAKI-1 > 1000 µM | SF-539 > 1000 µM | Malme-3M > 1000 µM | UACC-257 > 1000 µM | UO-31 > 1000 µM | OVCAR-4 > 1000 µM | RXF 393 > 1000 µM | NCI-H226 > 1000 µM | IGROV-1 > 1000 µM | HCC 2998 > 1000 µM | SF-268 > 1000 µM | LOX IMVI > 1000 µM | U-251 > 1000 µM | NCI-H522 > 1000 µM | HOP-92 56.6 µM | SNB-19 > 1000 µM | SK-MEL-5 > 1000 µM | SF-295 > 1000 µM | COLO 205 > 1000 µM | CCRF-CEM > 1000 µM

CCC1C(C#N)=C(O)NC(O)=C1C#N
inactive: CAKI-1 > 100 µM | SF-539 > 100 µM | Malme-3M > 100 µM | UACC-257 > 100 µM | UO-31 > 100 µM | OVCAR-4 > 100 µM | RXF 393 > 100 µM | NCI-H226 > 100 µM | IGROV-1 > 100 µM | HCC 2998 > 100 µM | SF-268 > 100 µM | LOX IMVI > 100 µM | U-251 > 100 µM | NCI-H522 > 100 µM | HOP-92 > 100 µM | SNB-19 > 100 µM | SK-MEL-5 > 100 µM | SF-295 > 100 µM | COLO 205 > 100 µM

O=C1c2cccc(O)c2C(=O)c2c(O)cc(CO)cc21 [ALOE-EMODIN]
inactive: CAKI-1 49.1 µM | Malme-3M 20.8 µM | UACC-257 49.8 µM | OVCAR-4 77.8 µM | RXF 393 > 100 µM | NCI-H226 > 100 µM | HCC 2998 83.9 µM | SF-268 52.4 µM | LOX IMVI 26.2 µM | U-251 > 100 µM | NCI-H522 22.8 µM | HOP-92 > 100 µM | SNB-19 49.1 µM | SK-MEL-5 15.8 µM | SF-295 96.2 µM | COLO 205 31.7 µM | CCRF-CEM 31.3 µM

Cc1cc(NC(=S)Nc2ccccc2)c(NC(=S)Nc2ccccc2)cc1C
inactive: CAKI-1 9.91 µM | SF-539 16 µM | Malme-3M 37.8 µM | UACC-257 44 µM | UO-31 21.6 µM | OVCAR-4 32.3 µM | RXF 393 > 46.8 µM | NCI-H226 47.6 µM | IGROV-1 22.8 µM | HCC 2998 20.6 µM | SF-268 36.8 µM | LOX IMVI 39.4 µM | U-251 15.7 µM | NCI-H522 7.78 µM | HOP-92 41.9 µM | SNB-19 47.9 µM | SK-MEL-5 11.4 µM | SF-295 11.4 µM | COLO 205 26.1 µM | CCRF-CEM 13.5 µM

Source: ChEMBL document CHEMBL1201862, “PubChem BioAssay data set” (2004)
